Experimental data taken from patent US20120189566A1 (DAIICHI FINE CHEMICAL CO., LTD., priority 2009, published 2012).

Key:
[1] = pH stability of pantethine-4′,4″-diphosphate, pantethine-4′-phosphate and pantethine (Example 2); assay type: physicochemical; settings: pH 4 or lower, or pH 7 or higher; 0.1% (w/v) in 50 mM buffer, 40° C. for 3 months; diphosphate tested as sodium salt
[2] = pH stability of barium pantethine-4′,4″-diphosphate, pantethine and calcium pantetheine-5-sulfonate (Example 1); settings: 0.1% (w/v) in 50 mM buffer, 40° C. for 6 months, diphosphate tested as barium salt
Excerpt: Sodium citrate buffer solutions were used as buffer solutions at pH 3, 4, 5 and 6. Sodium phosphate buffer solutions were used as buffer solutions at pH 6.5 and 7. Tris-HCl buffer solutions were used as buffer solutions at pH 8 and 9.5.

[3] = tested on: LabCyte MELANO-MODEL, human skin three-dimensional model containing melanocytes; test: Melanin production inhibition test in human skin three-dimensional model; assay type: cell-based; settings: for IC50: read-out: concentration at which melanin production inhibition rate reaches 50%, from plots in FIG. 5, kojic acid 0.1% = 100% inhibition, PBS = 0%
Protocol: The culture medium and the applied sample solution were exchanged every 2 or 3 days. After the completion of the culture, the percentage of viable cells was measured by an MTT (methylthiazole tetrazolium) assay. Further, a melanin amount was measured.
Melanin amount: The skin cells after the MTT assay were immersed in a reagent obtained by dissolving 1% SDS, 0.05 mM EDTA, and a 10 mM tris-HCl buffer solution (pH 7.2). 3 μL of a 5 mg/mL Proteinase K was added and the solution was heated in a water bath at 45° C. overnight to dissolve the skin. A 30% hydrogen peroxide solution and a 500 mM sodium carbonate solution were added thereto, the solution was mixed well and heated in a water bath at 80° C. for 30 min, and impurities were removed by chloroform/methanol (2/1). At the same time, melanin solutions were prepared by similar operations to prepare a calibration curve, and a melanin amount in the cultured skin cells was determined.

[4] = Stability of pantetheine-4′-phosphate, pantetheine and pantethine (Example 4); settings: 40° C. for 1 month; for amount of disulfide produced from the compound: alkaline condition (pH 8 and pH 9.5)
Protocol: Fifty mM sodium citrate buffer solutions (pH 3, 4, 5, and 6), a 50 mM sodium phosphate buffer solution (pH 7), and 50 mM tris-HCl buffer solutions (pH 8, 9.5) containing 0.1% (w/v) of pantetheine-4′-phosphate were prepared. Each 0.4 mL of the solutions was encapsulated in a 1 mL-glass ampule and heated at 40° C. for 1 month. Samples before and after the heating were analyzed by an HPLC to measure the content of pantetheine-4′-phosphate.

[5] = ratio of 50% inhibition concentrations

Q: For CC(C)(COP(=O)(O)O)[C@@H](O)C(=O)NCCC(=O)NCCSSCCNC(=O)CCNC(=O)[C@H](O)C(C)(C)COP(=O)(O)O [Pantethine-4′,4″-diphosphate, pantethine-4′,4″-diphosphate], which “stability (content by HPLC before and after heating)” value [1] is on record?
A: stable

Q: For CC(C)(CO)[C@@H](O)C(=O)NCCC(=O)NCCSS(=O)(=O)[O-].CC(C)(CO)[C@@H](O)C(=O)NCCC(=O)NCCSS(=O)(=O)[O-].[Ca+2] [calcium pantetheine-5-sulfonate], which “stability (content by HPLC before and after heating)” value ([2]; between pH 5 and 6) is on record?
A: stable

Q: What about the “stability (content by HPLC before and after heating)” value ([2]; pH 4 or lower, or pH 6.5 or higher) of the same compound?
A: clearly degraded

Q: Which “melanin production amount, relative to the case where only PBS was added” value ([3]; 0.1% (7 mM), culture for 2 weeks) does the source give for O=c1cc(CO)occ1O [kojic acid] here?
A: 30%

Q: Which “amount of disulfide produced from the compound” value [4] does the source give for CC(C)(COP(=O)(O)O)[C@@H](O)C(=O)NCCC(=O)NCCS [pantetheine-4′-phosphate] here?
A: did not decrease

Q: What about the “stability (content by HPLC before and after heating)” value ([4]; pH 3 and 4, 0.1% (w/v) in 50 mM buffer) of the same compound?
A: improved from pantetheine

Q: And the “stability: oxidation to the disulfide” value ([4]; pH 5 or higher, 0.1% (w/v) in 50 mM buffer)?
A: oxidized and changed to pantethine-4′,4″-diphosphate

Q: And the “stability: remaining compound” value ([4]; pH 7 or higher, 0.1% (w/v) in 50 mM buffer)?
A: neither the pantetheine-4′-phosphate nor pantetheine remained

Q: For CC(C)(CO)[C@@H](O)C(=O)NCCC(=O)NCCS [pantetheine], which “amount of disulfide produced from the compound” value [4] is on record?
A: decrease in the amount of pantethine produced

Q: Which IC50 ([3]; culture for 2 weeks) does the source give for O=C1O[C@H]([C@@H](O)CO)C(O)=C1OP(=O)(O)O [sodium ascorbyl-2-phosphate] here?
A: 54 mM

Q: Which IC50 ([3]; culture for 2 weeks) does the source give for pantethine-4′,4″-di-β-galactoside here?
A: 77 mM

Q: Which results are given for sodium pantethine-4′,4″-diphosphate?
A: whitening activity relative to pantethine [3, 5]: 1.7 fold; whitening activity relative to sodium ascorbyl-2-phosphate [3, 5]: 17 times; IC50 ([3]; culture for 2 weeks): 3.1 mM
